The values that follow come from ChEMBL document CHEMBL5154691, “Discovery of novel verinurad analogs as dual inhibitors of URAT1 and GLUT9 with improved Druggability for the treatment of hyperuricemia” (Eur J Med Chem, 2022).

Experiment [1] has as its target T1, Solute carrier family 22 member 12 (Homo sapiens, UniProt Q96S37).
T1 sequence (Q96S37 whole entry): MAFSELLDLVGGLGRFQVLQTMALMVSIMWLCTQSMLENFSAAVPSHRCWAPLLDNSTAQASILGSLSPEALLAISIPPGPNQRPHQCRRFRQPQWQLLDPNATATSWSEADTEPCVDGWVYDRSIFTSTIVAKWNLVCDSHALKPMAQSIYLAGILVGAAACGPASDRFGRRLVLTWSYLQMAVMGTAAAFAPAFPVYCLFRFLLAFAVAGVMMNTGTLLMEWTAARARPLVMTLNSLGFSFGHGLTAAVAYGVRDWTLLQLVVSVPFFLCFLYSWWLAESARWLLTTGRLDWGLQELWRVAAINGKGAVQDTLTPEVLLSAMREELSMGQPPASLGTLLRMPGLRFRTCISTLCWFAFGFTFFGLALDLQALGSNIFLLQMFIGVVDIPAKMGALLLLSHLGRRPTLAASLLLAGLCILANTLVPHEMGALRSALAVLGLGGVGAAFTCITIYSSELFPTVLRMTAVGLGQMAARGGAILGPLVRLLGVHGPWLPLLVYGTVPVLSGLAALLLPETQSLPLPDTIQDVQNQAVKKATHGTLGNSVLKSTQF
In words: Inhibition of URAT1 (unknown origin)-mediated 14C-uric acid uptake expressed in HEK293 cells using 14C-uric acid as substrate preincubated for 30 mins followed by substrate addition and measured after 15 mins by liquid scintillation counting analysis. It is filed as cell-based.

For experiment [2], the target named is T2, Solute carrier family 2, facilitated glucose transporter member 9 (Homo sapiens) (UniProt Q9NRM0).
T2 sequence (whole entry): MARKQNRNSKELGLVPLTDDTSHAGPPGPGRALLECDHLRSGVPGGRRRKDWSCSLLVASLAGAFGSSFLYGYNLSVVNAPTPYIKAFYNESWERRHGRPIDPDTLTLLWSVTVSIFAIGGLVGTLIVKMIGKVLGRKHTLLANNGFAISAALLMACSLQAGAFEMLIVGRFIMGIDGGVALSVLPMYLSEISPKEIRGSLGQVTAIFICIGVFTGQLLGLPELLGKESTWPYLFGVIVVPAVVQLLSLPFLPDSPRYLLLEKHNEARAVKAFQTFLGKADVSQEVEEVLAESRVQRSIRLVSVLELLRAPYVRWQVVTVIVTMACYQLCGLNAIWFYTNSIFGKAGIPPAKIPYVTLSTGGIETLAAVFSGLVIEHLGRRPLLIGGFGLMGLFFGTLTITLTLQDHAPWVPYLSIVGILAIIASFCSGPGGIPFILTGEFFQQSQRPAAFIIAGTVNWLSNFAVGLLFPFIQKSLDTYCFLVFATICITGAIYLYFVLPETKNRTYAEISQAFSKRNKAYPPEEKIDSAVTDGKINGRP
In words: Inhibition of GLUT9 (unknown origin) expressed in HEK293T cells assessed as inhibition of uric acid-induced current at 10 uM by whole cell patch clamp technique. The format is cell-based. In general terms: The patch-clamp technique gives a direct electrical read-out from membranes.

Experiment [3] deals with T3, Solute carrier family 22 member 6 (Homo sapiens, UniProt Q4U2R8).
T3 sequence (Q4U2R8 whole entry): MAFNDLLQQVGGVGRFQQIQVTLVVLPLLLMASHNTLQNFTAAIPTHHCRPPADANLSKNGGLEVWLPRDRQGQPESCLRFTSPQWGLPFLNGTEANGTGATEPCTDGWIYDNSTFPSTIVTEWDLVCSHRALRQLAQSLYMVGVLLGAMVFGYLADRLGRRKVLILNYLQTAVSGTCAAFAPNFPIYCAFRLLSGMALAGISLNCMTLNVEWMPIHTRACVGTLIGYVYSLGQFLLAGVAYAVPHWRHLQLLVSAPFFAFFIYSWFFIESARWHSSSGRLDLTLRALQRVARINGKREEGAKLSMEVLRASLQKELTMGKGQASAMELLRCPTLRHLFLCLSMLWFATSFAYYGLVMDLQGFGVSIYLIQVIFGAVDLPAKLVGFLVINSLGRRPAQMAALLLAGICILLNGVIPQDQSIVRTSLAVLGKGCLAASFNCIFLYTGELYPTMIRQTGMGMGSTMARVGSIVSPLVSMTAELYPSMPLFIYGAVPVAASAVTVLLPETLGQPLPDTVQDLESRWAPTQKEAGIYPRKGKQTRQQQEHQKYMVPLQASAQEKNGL
In words: Inhibition of OAT1 (unknown origin) expressed in HEK293 cells assessed as inhibition of 6-CFL uptake preincubated for 30 mins followed by incubation with 6-CFL and measured after 15 mins by fluorescence based analysis. The format is toxicity, cell-based.

In experiment [4] the target is T4, Broad substrate specificity ATP-binding cassette transporter ABCG2 (Homo sapiens, UniProt Q9UNQ0).
T4 sequence (Q9UNQ0 whole entry): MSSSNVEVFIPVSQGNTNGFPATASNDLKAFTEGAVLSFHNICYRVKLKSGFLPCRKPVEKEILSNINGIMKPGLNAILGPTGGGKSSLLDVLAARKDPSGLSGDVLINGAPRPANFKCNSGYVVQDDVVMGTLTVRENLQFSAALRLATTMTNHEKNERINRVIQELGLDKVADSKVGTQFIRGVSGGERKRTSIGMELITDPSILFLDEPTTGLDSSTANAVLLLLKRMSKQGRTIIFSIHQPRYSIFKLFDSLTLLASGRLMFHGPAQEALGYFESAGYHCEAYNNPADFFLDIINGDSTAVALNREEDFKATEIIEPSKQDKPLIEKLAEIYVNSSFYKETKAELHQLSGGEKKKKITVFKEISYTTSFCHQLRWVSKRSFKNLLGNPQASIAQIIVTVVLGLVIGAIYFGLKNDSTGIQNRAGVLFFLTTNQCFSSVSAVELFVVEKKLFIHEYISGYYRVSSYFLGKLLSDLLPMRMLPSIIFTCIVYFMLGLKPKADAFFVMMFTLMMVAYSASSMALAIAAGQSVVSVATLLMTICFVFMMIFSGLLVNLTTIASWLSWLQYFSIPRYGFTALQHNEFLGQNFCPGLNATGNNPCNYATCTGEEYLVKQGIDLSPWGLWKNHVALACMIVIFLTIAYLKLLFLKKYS
In words: Inhibition of ABCG2 (unknown origin) expressed in HEK293 cells membrane vesicles assessed as inhibition of ATP-induced 14C-uric acid uptake preincubated for 15 mins followed by incubation with ATP and substrate for 5 mins by liquid scintillation counting analysis. It is filed as toxicity, cell membranes, Membrane vesicle.

In general, IC50 refers to the point on the concentration scale where inhibition reaches its midpoint. In the case of `CN(c1cnccc1SCCCC(=O)O)c1ccc(C#N)c2ccccc12`, in experiment [1], the IC50 was 2.58 µM.
Same read-out and setting: the value for `N#Cc1ccc(Oc2cnccc2SCCCCC(=O)O)c2ccccc12` was 4.22 µM.
On the same count and under the same terms, the value for `CN(c1cnccc1SCCCCC(=O)O)c1ccc(C#N)c2ccccc12` was 3.58 µM; that for `N#Cc1ccc(Oc2cnccc2SCc2ccc(-c3ccccc3C(=O)O)cc2)c2ccccc12` was 15.1 µM.
In experiment [1], `COc1ccc(Sc2ccncc2Oc2ccc(C#N)c3ccccc23)c(CC(=O)O)c1` displayed an IC50 of 14.2 µM.
For orientation: inhibition means the share of the control response that was lost under treatment. Take `N#Cc1ccc(Oc2cnccc2SCCCC(=O)O)c2ccccc12`: the IC50 in experiment [1] was found to be 1.23 µM; in experiment [3], 41.3 µM; in experiment [4], 27.9 µM. Besides, in experiment [2], the inhibition stood at 15.2%.
In the case of `CC(C)(Sc1ccncc1Oc1ccc(C#N)c2ccccc12)C(=O)O`, the IC50 in experiment [1] worked out at 5.21 µM.
Same read-out and setting: the value for `N#Cc1ccc(Oc2cnccc2Sc2ccc(Br)cc2CC(=O)O)c2ccccc12` was 8.05 µM; that for `COc1cc(C(=O)O)ccc1CSc1ccncc1Oc1ccc(C#N)c2ccccc12` was 16.4 µM; that for `N#Cc1ccc(Oc2cnccc2SCc2cccc(C(=O)O)c2)c2ccccc12` was 6.58 µM.
As to `N#Cc1ccc(Oc2cnccc2SCc2ccc(C(=O)O)cc2)c2ccccc12`, it took 10.2 µM to reach half-maximal inhibition in experiment [1] (IC50).
On the same count and under the same terms, as for `CN(c1cnccc1SCCCCCC(=O)O)c1ccc(C#N)c2ccccc12`, the figure is 3.76 µM.
With `COc1cc(C(=O)O)ccc1CSc1ccncc1N(C)c1ccc(C#N)c2ccccc12`, the IC50 in experiment [1] was found to be 0.46 µM; in experiment [3], 25.5 µM; in experiment [4], 34.8 µM. Besides, the inhibition in experiment [2] amounted to 23.1%.
As to `N#Cc1ccc(Nc2cnccc2SCCCCCCC(=O)O)c2ccccc12`, the IC50 in experiment [1] came out at 5.75 µM.
`N#Cc1ccc(Nc2cnccc2SCc2ccc(-c3ccccc3C(=O)O)cc2)c2ccccc12` showed an IC50 in experiment [1] of 4.68 µM.
The same measure, in the same setting: as for `N#Cc1ccc(Nc2cnccc2SCCCCCC(=O)O)c2ccccc12`, the figure is 4.24 µM; as for `N#Cc1ccc(Nc2cnccc2SCCCCC(=O)O)c2ccccc12`, 2.28 µM.
For the compound `CN(c1cnccc1SCc1ccccc1C(=O)O)c1ccc(C#N)c2ccccc12`, 4.44 µM corresponded to half-maximal inhibition in experiment [1] (IC50).
Still for that read-out and setting: the value for `COc1ccc(Sc2ccncc2Nc2ccc(C#N)c3ccccc23)c(CC(=O)O)c1` was 4.25 µM; that for `N#Cc1ccc(Oc2cnccc2SCc2ccccc2C(=O)O)c2ccccc12` was 6.86 µM; that for `CN(c1cnccc1SCc1cccc(C(=O)O)c1)c1ccc(C#N)c2ccccc12` was 3.57 µM.
The same measure, in the same setting: as for `N#Cc1ccc(Oc2cnccc2SCCCCCCC(=O)O)c2ccccc12`, the figure is 3.78 µM; as for `N#Cc1ccc(Oc2cnccc2SCC(=O)O)c2ccccc12`, 6.97 µM; as for `N#Cc1ccc(Nc2cnccc2SCCCC(=O)O)c2ccccc12`, 2.78 µM.
In turn, `N#Cc1ccc(Nc2cnccc2Sc2ccc(Br)cc2CC(=O)O)c2ccccc12` displayed a concentration for half-maximal inhibition (IC50) in experiment [1] of 4.12 µM.
The same measure, in the same setting: the value for `N#Cc1ccc(Oc2cnccc2Sc2cccc([N+](=O)[O-])c2CC(=O)O)c2ccccc12` was 10.5 µM.
Still for that read-out and setting: the value for `N#Cc1ccc(Oc2cnccc2SCCCCCC(=O)O)c2ccccc12` was 4.74 µM; that for `N#Cc1ccc(Nc2cnccc2Sc2cccc([N+](=O)[O-])c2CC(=O)O)c2ccccc12` was 3.44 µM; that for `COc1cc(C(=O)O)ccc1CSc1ccncc1Nc1ccc(C#N)c2ccccc12` was 1.66 µM.
As for `CN(c1cnccc1SCCCCCCC(=O)O)c1ccc(C#N)c2ccccc12`, the IC50 in experiment [1] amounted to 4.64 µM.
Compound `N#Cc1ccc(Nc2cnccc2SCc2cccc(C(=O)O)c2)c2ccccc12` gave an IC50 in experiment [1] of 1.96 µM.
On the same count and under the same terms, the value for `N#Cc1ccc(Nc2cnccc2SCc2ccc(C(=O)O)cc2)c2ccccc12` was 2.55 µM.
Same read-out and setting: as for `CN(c1cnccc1SCc1ccc(-c2ccccc2C(=O)O)cc1)c1ccc(C#N)c2ccccc12`, the figure is 4.57 µM.
`CN(c1cnccc1SCc1ccc(C(=O)O)cc1)c1ccc(C#N)c2ccccc12`: the IC50 in experiment [1] was 6.25 µM.
Same read-out and setting: as for `CN(c1cnccc1SC(C)(C)C(=O)O)c1ccc(C#N)c2ccccc12`, the figure is 5.36 µM.
